# Legend:
# [1] = Stability of purified vWF fractions on dialysis incubation; type: physicochemical; conditions: fractions 12 to 20, 24 h dialysis incubation at 37° C., absence of inhibitors, citrate/NaCl buffer or 1 M urea buffer
# Description: vWF was purified by gal filtration of human cryoprecipitate, obtained from 1 l citrated plasma, an a 2.6×35-cm column of Sepharose CL-2B (Pharmacia, Uppsala, Sweden). Elution was performed with 0.13 M sodium chloride, 0.01 M citrate, 0.01 M Tris-HCl, pH 7.4. Fractions of 6 ml were collected at a flow rate of 24 ml/h. vWF antigen was measured by ELISA by using polyclonal rabbit antiserum against human vWF (RAHu/FVIII, from Nordic (Tillburg, The Netherlands), peroxidase-labeled rabbit antihuman-vWF, mouse monoclonal antibody against rabbit IgG (M737), and the kit for immunostaining (K670) (all from Dako (Glostrup, Denmark)), according to the instructions included with the kit.
# SDS agarose gels of these assays are illustrated in FIG. 2 (panels A and B).
# human fibrinogen = test: Incubation of other proteins with the purified protease: fibrinogen; type: biochemical; conditions: 0.4 mg/ml, undiluted barium-preincubated protease, 1 M urea, pH 8.0, 24 hours at 37° C.
# vWF [2] = test: Polypeptide subunits and N-terminal sequence of vWF degraded by the purified protease; type: biochemical, human; conditions: from N-terminal sequences of 250, 170 and 140 kD bands
# Description: For analysis of the amino acid composition and of amino acid sequence, the unreduced peak fraction of the protease and the reduced vWF fragments were dialyzed against 1 mM EDTA, were lyophilized, and were redissolved in 1/50 of the original volume before SDS-PAGE. The HMW protein bands were electrotransferred from the gel to a PVDF (polyvinyliden-difluoride) membrane (BioRad) for 6 hours at 26 V and 0.4 A, using 0.05% SDS, 10% methanol, 0.05 M boric acid, pH 9.0, as transfer buffer. After transfer, the membrane was stained with Coomassie-Blue in 40% methanol, destained in 40% methanol and 10% acetic acid, and air-dried. The excised bands were transferred to the blot cartridge of the Applied Biosystems Model 477A sequenator, which was equipped with on-line high-performance liquid chromatography for analysis of phenylthiohydantoin derivatives, For analysis of amino acid compositions, the protein bands were hydrolyzed in the gas phase over 6N HCl for 22 hours at 110° C. The amino acids were extracted from the PVDF membrane with 70% 0.1 N HCl/30% methanol and were determined by high-performance liquid chromatography as phenylthiocarbamyl derivatives. The amino acid composition of the unreduced protein band coeluted from the Sephacryl S-300 HR column together with the protease activity is shown in Table 1. […]
# [3] = Stability of the protease in solution; type: physicochemical
# Source text: In the absence of these ions the protease was quite stable in solution, and thus it was possible to purify the enzyme by chromatographic procedures taking place for several days at room temperature.
# calf skin collagen = test: Incubation of other proteins with the purified protease: collagen; type: biochemical; conditions: 0.4 mg/ml, undiluted barium-preincubated protease, 1 M urea, pH 8.0, 24 hours at 37° C.
# BSA = test: Incubation of other proteins with the purified protease: BSA; type: biochemical; conditions: 0.2 mg/ml, undiluted barium-preincubated protease, 1 M urea, pH 8.0, 24 hours at 37° C.
# [4] = system: Recombinant vWF factor (r-vWF); test: Proteolytic fragmentation of recombinant vWF by the vWF protease preparation; type: biochemical
# Description: The buffer system which had been sufficiently optimized for the instant assaying system thus comprised a dialysis Solution with 1 M urea in 5 mM Tris-HCl at pH 8. Full activation of the protease was achieved by preincubation for 5 minutes at 37° C. with 10 mM barium chloride. In a typical experiment, 50 μl activated protease solution and 100 μl substrate solution were carefully placed on a floating membrane, and incubated in a closed tube for 24 h in a dry oven at 37° C.
# Recombinant vWF factor (r-vWF), produced according to FEBS-Letters 375, 259-262 (1995) with a concentration of 104 U (Ag)/ml in 20 mM TBS buffer, pH 8.3, was incubated as described above with the vWF protease preparation according to the invention.
# Analysis of the r-vWF and its proteolytic degradation products was performed on 1% and 2% agarose gels, also according to the method of Ruggeri et al. (Blood 57 (1981), 1140-1143). The vWF multimers were made visible by immunoenzymatic staining according to Aihara et al. (Thromb. Haemostas. 55 (1986), 263-267). A rabbit-anti-von Willebrand factor-antiserum (from Dakopatts, Glostrup, Denmark) was used as the primary antibody, and an alkaline phosphatase-conjugated, affinity-purified goat-anti-rabbit IgG H+L-antibody (from Axell Accurate Chemical and Scientific Corp, Westburg, N.Y.) served as the secondary antibody. […]
# vWF from cryoprecipitate = test: Degradation of plasmatic vWF (cryoprecipitate, highest molecular weight multimers) by vWF protease; type: biochemical, human
# [5] = Plasmin activity of the protease preparation with chromogenic substrate; type: biochemical; conditions: preparation after copper chelate affinity chromatography
# Source text: Thus, it was necessary to exclude the possibility that the protease preparation might effect a degradation of the von Willebrand factor multimers due to plasmin present in the preparation rather than as a result of the vWF-specific protease.
# r-vWF = test: Degradation of r-vWF with plasmin; type: biochemical
# plasmatic vWF = test: Degradation of plasmatic vWF (cryoprecipitate) with plasmin; type: biochemical, human; conditions: overnight digestion
# vWF [6] = conditions: after cleavage with plasmin; cited from earlier work
molecule,measurement,setting,value
"vWF: vWF purified by gel filtration of human cryoprecipitate, fractions 12 to 20",stability of vWF (multimer pattern),[1],very stable
"protease: von Willebrand factor cleaving protease purified from human plasma, named multimerase; converts singlet vWF to satellite structure",degradation of human fibrinogen,human fibrinogen,no degradation
same,peptide bond of vWF cleaved,vWF [2],842Tyr-843Met
same,stability of the protease in solution,"[3]; in the absence of calcium, strontium and barium ions",quite stable
same,protease activity after prolonged preincubation,"[3]; prolonged preincubation with calcium, strontium and barium, even at physiological salt and without urea",loss of protease activity
same,degradation of calf skin collagen,calf skin collagen,no degradation
same,degradation of BSA,BSA,no degradation
same,multimer pattern of r-vWF after incubation with protease,[4]; after 3 h,loss of the highest multimers
same,multimer pattern of r-vWF after incubation with protease,[4]; after 20 hours,oligomers and multimers could no longer be detected
same,multimer pattern of cryoprecipitate vWF on incubation with vWF protease,vWF from cryoprecipitate; cryoprecipitate,loss of multimers could be observed over time
same,multimer pattern of highest molecular weight vWF multimers preparation with vWF protease,"vWF from cryoprecipitate; laboratory preparation 10 U (Ag)/ml in 20 mm TBS buffer, pH 8.3",clear shift towards lower molecular weight multimers
same,plasmin activity,[5],0.2 U/ml
"plasmin: human plasmin from Chromogenics, serine protease used as comparison (protein, UniProt P00747 20-580; P00747 581-810, looked up, Plasmin, human plasmin from Chromogenics, serine protease used as comparison) Plasmin heavy chain A: EPLDDYVNTQGASLFSVTKKQLGAGSIEECAAKCEEDEEFTCRAFQYHSKEQQCVIMAENRKSSIIIRMRDVVLFEKKVYLSECKTGNGKNYRGTMSKTKNGITCQKWSSTSPHRPRFSPATHPSEGLEENYCRNPDNDPQGPWCYTTDPEKRYDYCDILECEEECMHCSGENYDGKISKTMSGLECQAWDSQSPHAHGYIPSKFPNKNLKKNYCRNPDRELRPWCFTTDPNKRWELCDIPRCTTPPPSSGPTYQCLKGTGENYRGNVAVTVSGHTCQHWSAQTPHTHNRTPENFPCKNLDENYCRNPDGKRAPWCHTTNSQVRWEYCKIPSCDSSPVSTEQLAPTAPPELTPVVQDCYHGDGQSYRGTSSTTTTGKKCQSWSSMTPHRHQKTPENYPNAGLTMNYCRNPDADKGPWCFTTDPSVRWEYCNLKKCSGTEASVVAPPPVVLLPDVETPSEEDCMFGNGKGYRGKRATTVTGTPCQDWAAQEPHRHSIFTPETNPRAGLEKNYCRNPDGDVGGPWCYTTNPRKLYDYCDVPQCAAPSFDCGKPQVEPKKCPGR Plasmin light chain B: VVGGCVAHPHSWPWQVSLRTRFGMHFCGGTLISPEWVLTAAHCLEKSPRPSSYKVILGAHQEVNLEPHVQEIEVSRLFLEPTRKDIALLKLSSPAVITDKVIPACLPSPNYVVADRTECFITGWGETQGTFGAGLLKEAQLPVIENKVCNRYEFLNGRVQSTELCAGHLAGGTDSCQGDSGGPLVCFEKDKYILQGVTSWGLGCARPNKPGVYVRVSRFVTWIEGVMRNN",degradation of recombinant vWF,r-vWF; overnight digestion,completely degraded
same,degradation of r-vWF multimers (kinetic examination),"r-vWF; plasmin 0.2 U/ml admixed 1:1 with r-vWF, 37° C.",successive degradation of the multimers over 29 h
same,degradation of r-vWF,r-vWF; plasmin concentration reduced to 1:10,degraded more slowly
same,degradation of plasmatic vWF,plasmatic vWF,completely degraded
same,platelet agglutinating activity (ristocetin cofactor) retained by high molecular weight core region of vWF,vWF [6],about 70%

# Reference: patent US6068838A, “Purified multimerase” (Baxter Aktiengesellschaft, priority 1996, dated 2000)
